Where two headings read alike, the source gives them in different places.
What was measured:
[1] = molecular target: human HDAC3/SMRT heterodimer (Homo sapiens (Human), UniProt O15379); experiment: biochemical
[2] = molecular target: HDAC6 (Homo sapiens (Human), UniProt Q9UBN7); experiment: biochemical
Protocol: The histone deacetylase activities of HDAC1, HDAC2, HDAC3, HDAC6, and HDAC8 were measured in modified FLUOR DE LYS assays in 384-well format. In this assay, HDAC enzymes are initially incubated with an F-acetyl (or -trifluoroacetyl)-L-lysine-containing substrate with a C-terminal amide having aminomethylcoumarin as the amine component. HDACs cleave the F-acetyl group, rendering the resulting product susceptible to AMC cleavage by trypsin. The released AMC is then detected by its fluorescence. […] All steps were performed at room temperature (23° C.). The assay was performed by pre-incubating serial dilutions of test compounds with the target HDAC prior to initiation with substrate. […] Final conditions used for each assay were: 1. […] The reactions were stopped and developed by addition of 30 ul of HDAC developer solution containing a saturating level of HDAC inhibitor as follows: 1. […] For data analysis, background subtracted product (fluorescence) vs. time data for each inhibitor concentration was fitted using a 4-parameter fit.

[3] = tested on: KARN cells (Jurkat 2C4); experiment: cells; settings: Homo sapiens
[4] = molecular target: human HDAC2 (Homo sapiens (Human), UniProt Q92769); experiment: HDAC2 inhibition assay (modified FLUOR DE LYS, 384-well); type: biochemical; settings: […] nM enzyme, 40 μM substrate BML-KI104, 3 h pre-incubation; read-out: HDAC2 IC50
Sequence of human HDAC2 (Q92769 whole entry): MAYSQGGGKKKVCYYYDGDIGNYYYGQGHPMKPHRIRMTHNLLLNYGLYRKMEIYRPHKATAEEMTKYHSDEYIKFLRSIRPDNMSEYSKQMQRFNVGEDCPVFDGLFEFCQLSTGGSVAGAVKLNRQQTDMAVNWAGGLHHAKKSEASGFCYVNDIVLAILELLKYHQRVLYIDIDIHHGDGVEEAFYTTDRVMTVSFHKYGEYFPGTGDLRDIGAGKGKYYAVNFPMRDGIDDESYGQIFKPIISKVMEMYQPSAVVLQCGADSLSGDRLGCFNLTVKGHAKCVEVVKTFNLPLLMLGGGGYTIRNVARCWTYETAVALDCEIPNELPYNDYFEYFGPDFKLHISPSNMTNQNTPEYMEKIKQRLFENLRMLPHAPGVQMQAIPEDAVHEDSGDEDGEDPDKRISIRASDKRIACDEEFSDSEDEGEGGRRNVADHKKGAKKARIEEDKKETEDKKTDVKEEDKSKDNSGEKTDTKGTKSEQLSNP

[5] = molecular target: human HDAC1 (Homo sapiens (Human), UniProt Q13547); experiment: biochemical
Sequence of human HDAC1 (Q13547 whole entry): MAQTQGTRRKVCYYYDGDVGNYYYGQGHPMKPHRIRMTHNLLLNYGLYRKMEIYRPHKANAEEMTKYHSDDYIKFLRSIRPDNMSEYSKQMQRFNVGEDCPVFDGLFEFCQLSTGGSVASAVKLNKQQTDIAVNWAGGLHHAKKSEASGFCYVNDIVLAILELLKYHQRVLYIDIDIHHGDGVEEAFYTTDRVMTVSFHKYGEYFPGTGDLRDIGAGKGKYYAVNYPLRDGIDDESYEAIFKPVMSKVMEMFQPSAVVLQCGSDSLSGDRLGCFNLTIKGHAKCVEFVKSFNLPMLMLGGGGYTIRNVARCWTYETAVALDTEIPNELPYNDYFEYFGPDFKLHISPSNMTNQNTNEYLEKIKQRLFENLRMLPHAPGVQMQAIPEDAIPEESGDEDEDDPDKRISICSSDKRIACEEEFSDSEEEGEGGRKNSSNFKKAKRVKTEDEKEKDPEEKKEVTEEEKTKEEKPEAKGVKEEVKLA

[6] = molecular target: human HDAC8 (Homo sapiens (Human), UniProt Q9BY41); experiment: HDAC8 inhibition assay (modified FLUOR DE LYS, 384-well); type: biochemical; settings: […] nM enzyme, 200 μM substrate BML-KI178, 3 h pre-incubation; read-out: HDAC8 IC50
Sequence of human HDAC8 (Q9BY41 whole entry): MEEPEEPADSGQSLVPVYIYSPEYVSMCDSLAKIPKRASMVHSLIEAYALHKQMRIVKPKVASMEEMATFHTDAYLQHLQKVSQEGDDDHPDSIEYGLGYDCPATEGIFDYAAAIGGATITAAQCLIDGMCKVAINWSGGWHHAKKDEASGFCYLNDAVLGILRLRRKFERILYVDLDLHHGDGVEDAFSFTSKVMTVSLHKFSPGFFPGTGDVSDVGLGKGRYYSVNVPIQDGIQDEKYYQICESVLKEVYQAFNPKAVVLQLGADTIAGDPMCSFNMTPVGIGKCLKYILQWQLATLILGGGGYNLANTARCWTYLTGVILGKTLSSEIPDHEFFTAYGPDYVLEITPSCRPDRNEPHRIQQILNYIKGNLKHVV

[7] = read-out: Karn EC50 nM 0.1% NHS, 0.1% normal human serum, luciferase induction, 2 μM SAHA = 100%
[8] = read-out: Karn EC50 nM 5% NHS, 5% normal human serum, luciferase induction, 2 μM SAHA = 100%

Sequence of human HDAC3/SMRT heterodimer (O15379 whole entry): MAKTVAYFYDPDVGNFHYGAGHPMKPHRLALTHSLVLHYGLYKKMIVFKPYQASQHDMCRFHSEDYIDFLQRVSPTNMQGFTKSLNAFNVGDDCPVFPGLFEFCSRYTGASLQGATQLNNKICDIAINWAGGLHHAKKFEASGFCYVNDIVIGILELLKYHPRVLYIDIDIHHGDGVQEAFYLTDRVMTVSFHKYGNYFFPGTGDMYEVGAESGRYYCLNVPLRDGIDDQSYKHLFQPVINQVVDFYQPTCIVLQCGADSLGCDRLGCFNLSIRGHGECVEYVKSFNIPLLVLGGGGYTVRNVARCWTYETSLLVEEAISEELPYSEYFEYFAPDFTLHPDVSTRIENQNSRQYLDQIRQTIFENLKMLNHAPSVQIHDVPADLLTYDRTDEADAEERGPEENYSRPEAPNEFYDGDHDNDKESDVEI
Sequence of human HDAC3/SMRT heterodimer (Q9Y618 1-899 partner): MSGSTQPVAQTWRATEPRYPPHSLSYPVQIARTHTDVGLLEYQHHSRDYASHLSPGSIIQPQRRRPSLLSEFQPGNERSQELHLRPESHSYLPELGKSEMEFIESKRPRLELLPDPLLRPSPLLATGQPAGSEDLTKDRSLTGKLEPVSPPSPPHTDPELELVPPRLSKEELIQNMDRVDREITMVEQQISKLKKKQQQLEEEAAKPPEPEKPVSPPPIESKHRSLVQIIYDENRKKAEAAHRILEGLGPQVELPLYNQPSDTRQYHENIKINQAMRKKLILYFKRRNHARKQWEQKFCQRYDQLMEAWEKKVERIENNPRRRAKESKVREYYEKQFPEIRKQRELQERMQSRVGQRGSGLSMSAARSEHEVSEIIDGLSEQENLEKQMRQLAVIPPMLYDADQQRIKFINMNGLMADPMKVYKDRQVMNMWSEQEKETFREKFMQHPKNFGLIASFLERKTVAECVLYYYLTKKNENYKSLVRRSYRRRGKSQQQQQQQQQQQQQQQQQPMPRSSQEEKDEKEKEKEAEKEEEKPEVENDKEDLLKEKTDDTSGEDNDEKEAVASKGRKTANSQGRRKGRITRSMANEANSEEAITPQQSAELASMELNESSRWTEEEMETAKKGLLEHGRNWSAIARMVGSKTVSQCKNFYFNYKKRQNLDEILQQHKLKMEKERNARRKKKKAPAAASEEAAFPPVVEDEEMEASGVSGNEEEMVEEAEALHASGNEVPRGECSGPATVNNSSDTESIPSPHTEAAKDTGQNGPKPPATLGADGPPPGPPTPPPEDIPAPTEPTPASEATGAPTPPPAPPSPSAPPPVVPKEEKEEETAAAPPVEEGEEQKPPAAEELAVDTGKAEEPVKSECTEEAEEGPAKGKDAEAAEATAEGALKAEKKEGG
Sequence of HDAC6 (Q9UBN7 whole entry): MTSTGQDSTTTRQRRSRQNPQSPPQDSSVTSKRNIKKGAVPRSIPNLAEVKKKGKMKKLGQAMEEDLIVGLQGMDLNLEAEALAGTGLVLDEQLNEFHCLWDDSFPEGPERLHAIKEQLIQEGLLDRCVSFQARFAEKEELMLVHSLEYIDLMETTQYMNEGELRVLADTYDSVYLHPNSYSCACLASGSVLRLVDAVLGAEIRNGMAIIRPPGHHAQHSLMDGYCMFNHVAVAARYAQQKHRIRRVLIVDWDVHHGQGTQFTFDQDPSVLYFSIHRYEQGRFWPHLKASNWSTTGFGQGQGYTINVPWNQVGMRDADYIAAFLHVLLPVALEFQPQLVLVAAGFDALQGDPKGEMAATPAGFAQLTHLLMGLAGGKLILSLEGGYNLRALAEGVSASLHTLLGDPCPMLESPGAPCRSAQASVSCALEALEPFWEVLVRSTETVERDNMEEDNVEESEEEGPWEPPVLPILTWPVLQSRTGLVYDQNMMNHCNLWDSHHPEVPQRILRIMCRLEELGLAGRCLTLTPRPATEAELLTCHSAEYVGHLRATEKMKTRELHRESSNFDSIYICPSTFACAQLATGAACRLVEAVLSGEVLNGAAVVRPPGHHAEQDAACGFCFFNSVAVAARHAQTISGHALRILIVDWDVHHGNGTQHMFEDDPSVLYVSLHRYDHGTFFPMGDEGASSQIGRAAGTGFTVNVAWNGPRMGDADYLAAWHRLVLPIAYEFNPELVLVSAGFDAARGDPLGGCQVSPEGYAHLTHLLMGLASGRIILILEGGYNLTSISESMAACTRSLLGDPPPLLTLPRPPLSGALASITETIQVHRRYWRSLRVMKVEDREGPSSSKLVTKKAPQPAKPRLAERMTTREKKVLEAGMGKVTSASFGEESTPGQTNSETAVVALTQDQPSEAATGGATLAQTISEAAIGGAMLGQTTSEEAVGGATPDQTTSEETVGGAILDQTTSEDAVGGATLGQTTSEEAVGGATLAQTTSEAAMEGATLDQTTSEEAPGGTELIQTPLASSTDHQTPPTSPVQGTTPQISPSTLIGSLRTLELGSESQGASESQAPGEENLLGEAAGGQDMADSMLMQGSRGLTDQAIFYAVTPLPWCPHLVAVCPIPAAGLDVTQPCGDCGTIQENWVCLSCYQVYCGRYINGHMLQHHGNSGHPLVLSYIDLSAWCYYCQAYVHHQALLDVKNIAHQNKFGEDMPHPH

| Compound | IC50 [1] [µM] | IC50 [2] [µM] | EC50 [3, 7] [nM] | EC50 [3, 8] [nM] | IC50 [4] [nM] | IC50 [5] [µM] | IC50 [6] [nM] | EC50 ([3]; read-out: Karn EC50 nM 0.1% NHS) [nM] | EC50 ([3]; read-out: Karn EC50 nM 5% NHS) [nM] |
| --- | --- | --- | --- | --- | --- | --- | --- | --- | --- |
| CCn1ccc2cc(-c3cnc([C@H](CCCCCC(=O)c4ccon4)NC(=O)CN(C)C)[nH]3)c(OC)cc2c1=O [Example 94, (S)-2-(dimethylamino)-N-(1-(5-(2-ethyl-7-methoxy-1-oxo-1,2-dihydroisoquinolin-6-yl)-1H-imidazol-2-yl)-7-(isoxazol-3-yl)-7-oxoheptyl)acetamide] | 0.00024 | 20 | 3.8 | 8.8 | 1 | 0.00026 | 5.2 | – | – |
| CCN[C@@H](CCCCCC(=O)c1ncco1)c1ncc(-c2ccc3nc(C)ccc3c2)[nH]1 [Example 74, (S)-7-(ethylamino)-7-(5-(2-methylquinolin-6-yl)-1H-imidazol-2-yl)-1-(oxazol-2-yl)heptan-1-one] | 0.0018 | ≥ 45 | 140 | 200 | 5 | 0.0016 | 4500 | – | – |
| CCn1ccc2cc(-c3c[nH]c([C@@H](N)CCCCCC(=O)c4ncco4)n3)ccc2c1=O [Example 10, (S)-6-(2-(1-amino-7-(oxazol-2-yl)-7-oxoheptyl)-1H-imidazol-4-yl)-2-ethylisoquinolin-1(2H)-one] | 0.0028 | ≥ 45 | 300 | 450 | 9.9 | 0.0026 | 2350 | – | – |
| CN[C@@H](CCCCCC(=O)c1ncco1)c1ncc(-c2cc3ccc(=O)n(C)c3cc2OC)[nH]1 [Example 76, (S)-7-methoxy-1-methyl-6-(2-(1-(methylamino)-7-(oxazol-2-yl)-7-oxoheptyl)-1H-imidazol-5-yl)quinolin-2(1H)-one] | 0.0027 | > 0.9 | 200 | 220 | 6.7 | 0.0022 | > 900 | – | – |
| COc1cc2nc(C)ccc2cc1-c1c[nH]c([C@@H](N)CCCCCC(=O)c2ccon2)n1 [Example 31, (S)-7-amino-1-(isoxazol-3-yl)-7-(4-(7-methoxy-2-methylquinolin-6-yl)-1H-imidazol-2-yl)heptan-1-one] | 0.0018 | 22 | 18 | 26 | 4.3 | 0.0014 | 100 | – | – |
| COc1nc(C2CC2)ccc1-c1c[nH]c([C@@H](N)CCCCCC(=O)c2ncco2)n1 [Example 24, (S)-7-amino-7-(4-(6-cyclopropyl-2-methoxypyridin-3-yl)-1H-imidazol-2-yl)-1-(oxazol-2-yl)heptan-1-one] | 0.0035 | ≥ 45 | 1400 | 2000 | 39 | 0.0071 | 3200 | – | – |
| CN1CC(C(=O)N[C@@H](CCCCCC(=O)c2ncco2)c2[nH]c(-c3ccc(F)cc3)nc2Cl)C1 [Example 101, (S)-N-(1-(4-chloro-2-(4-fluorophenyl)-1H-imidazol-5-yl)-7-(oxazol-2-yl)-7-oxoheptyl)-1-methylazetidine-3-carboxamide] | 0.0015 | ≥ 45 | 27 | 22 | 1.5 | 0.0015 | 340 | – | – |
| COc1cc2nc(C)ccc2cc1-c1cnc([C@H](CCCCCC(=O)c2ncco2)NC(=O)C2CCN(C)CC2)[nH]1 [Example 98, (S)-N-(1-(5-(7-methoxy-2-methylquinolin-6-yl)-1H-imidazol-2-yl)-7-(oxazol-2-yl)-7-oxoheptyl)-1-methylpiperidine-4-carboxamide] | 0.00064 | 1 | – | – | 3.6 | 0.00034 | 25 | 58 | 170 |
| COc1cc(-c2cnc([C@@H](N)CCCCCC(=O)c3ncco3)[nH]2)c(F)cn1 [Example 129, (S)-7-amino-7-(5-(5-fluoro-2-methoxypyridin-4-yl)-1H-imidazol-2-yl)-1-(oxazol-2-yl)heptan-1-one] | 0.016 | ≥ 45 | 1600 | 2900 | 100 | 0.016 | 2300 | – | – |
| Cc1ccc2cc(-c3cnc([C@H](CCCCCC(=O)c4ncco4)NC(=O)C4=NOC5(CCN(C)CC5)C4)o3)ccc2n1 [Example 116, (S)-8-methyl-N-(1-(5-(2-methylquinolin-6-yl)oxazol-2-yl)-7-(oxazol-2-yl)-7-oxoheptyl)-1-oxa-2,8-diazaspiro[4.5]dec-2-ene-3-carboxamide] | 0.0015 | 4.1 | 95 | 120 | 9.7 | 0.0048 | 250 | – | – |

— patent US12331044B2, “Inhibitors of histone deacetylase useful for the treatment or prevention of HIV infection” (Merck Sharp & Dohme LLC, priority 2018, dated 2025)
